Laboratory results from patent US8497075B2, “Methods of identifying a modulator that inhibits the binding between Epstein-Barr virus induced receptor 2 and cholesterol derived ligands” (Novartis AG, priority 2008, dated 2013).
Like-named read-outs stand apart in the source and are kept apart here.

What was measured:
Type in all cases: cell-based
FXRa (NR1H4) = biological target: T1, FXRa (NR1H4) (Homo sapiens, UniProt Q96RI1); test: nuclear hormone receptor reporter gene assay; details: concentrations up to 10 μM
T1 sequence (Q96RI1 1-486): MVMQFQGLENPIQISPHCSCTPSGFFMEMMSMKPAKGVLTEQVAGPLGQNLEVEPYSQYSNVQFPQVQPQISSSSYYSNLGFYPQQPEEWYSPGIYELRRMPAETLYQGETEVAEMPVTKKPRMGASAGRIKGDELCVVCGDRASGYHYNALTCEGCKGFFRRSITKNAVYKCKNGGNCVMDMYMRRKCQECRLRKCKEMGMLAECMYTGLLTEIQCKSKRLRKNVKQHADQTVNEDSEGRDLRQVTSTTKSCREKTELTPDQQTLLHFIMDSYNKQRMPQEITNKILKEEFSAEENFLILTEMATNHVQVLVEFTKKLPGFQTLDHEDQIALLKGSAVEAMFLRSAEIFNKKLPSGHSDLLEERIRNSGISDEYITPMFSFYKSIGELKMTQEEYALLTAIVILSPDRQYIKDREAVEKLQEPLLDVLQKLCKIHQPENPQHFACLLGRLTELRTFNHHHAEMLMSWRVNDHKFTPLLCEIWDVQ
From the text: (§1) So far oxysterols have been noted to have various physiological activities namely regulate the expression of genes that participate in both sterol and fat metabolism, serve as substrates for the synthesis of bile acids, and are intermediates in the transfer of sterols from the periphery to the liver (Russell, D. W. (2000). Oxysterol biosynthetic enzymes. Biochim. Biophys. Acta 1529, 126-135). […] This included binding assays for 26 different GPCRs, functional assays of 9 different GPCRs, 40 kinase assays, as well as selected ion channels, proteases, transporter and enzyme assays.

PPARg (NR1C3) = biological target: T2, PPARg (NR1C3) (Homo sapiens, UniProt P37231); test: nuclear hormone receptor reporter gene assay; details: concentrations up to 10 μM
T2 sequence (P37231 1-505): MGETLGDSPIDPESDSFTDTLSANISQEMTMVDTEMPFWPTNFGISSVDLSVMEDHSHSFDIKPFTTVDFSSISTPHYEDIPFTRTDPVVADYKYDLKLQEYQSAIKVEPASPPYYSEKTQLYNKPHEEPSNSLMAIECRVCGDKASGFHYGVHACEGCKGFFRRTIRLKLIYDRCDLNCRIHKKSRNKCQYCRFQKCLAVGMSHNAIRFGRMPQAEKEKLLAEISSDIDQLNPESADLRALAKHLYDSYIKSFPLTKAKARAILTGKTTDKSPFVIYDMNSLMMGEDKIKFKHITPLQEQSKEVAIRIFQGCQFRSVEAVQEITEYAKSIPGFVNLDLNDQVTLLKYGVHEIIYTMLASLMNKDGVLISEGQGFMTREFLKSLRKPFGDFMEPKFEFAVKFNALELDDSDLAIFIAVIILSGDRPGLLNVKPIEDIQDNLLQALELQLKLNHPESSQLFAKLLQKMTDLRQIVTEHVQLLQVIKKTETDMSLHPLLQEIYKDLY
From the text: as §1

SXR (NR112) = biological target: T3, SXR (NR112) (Homo sapiens, UniProt O75469); test: nuclear hormone receptor reporter gene assay; details: concentrations up to 10 μM
T3 sequence (O75469 1-434): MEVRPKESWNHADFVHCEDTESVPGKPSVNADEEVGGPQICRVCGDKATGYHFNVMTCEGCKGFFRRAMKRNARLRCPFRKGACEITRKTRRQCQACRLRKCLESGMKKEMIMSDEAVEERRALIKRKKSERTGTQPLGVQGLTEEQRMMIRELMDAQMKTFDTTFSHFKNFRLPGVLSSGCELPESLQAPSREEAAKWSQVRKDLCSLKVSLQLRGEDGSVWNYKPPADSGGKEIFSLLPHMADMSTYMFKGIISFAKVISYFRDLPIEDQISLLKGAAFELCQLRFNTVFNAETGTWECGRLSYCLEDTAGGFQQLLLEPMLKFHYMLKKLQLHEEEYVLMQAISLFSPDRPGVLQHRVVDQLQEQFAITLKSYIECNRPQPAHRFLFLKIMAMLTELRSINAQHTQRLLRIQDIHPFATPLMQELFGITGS
From the text: as §1

hEBI2 = hEBI2 (Homo sapiens, UniProt P32249); test: cAMP assay, hEBI2 CHO-AeqGα16 cells; design: expressed in transfected cells; host or cells: CHO-K1 expressing apoaequorin (CHO-Aeq) with Gqi5; line E2
Method: The same stable EBI2 cell line used in the aequorin assay was used in cAMP assay. 10,000 cells (25 μA) were seeded per well into white solid 384-well plate and incubated in 37° C. incubator overnight. 500 nl of compound was then transferred into each assay well, followed by 5 μl of forskolin addition for a final concentration of 30 μM. Cells were returned to a 37° C. incubator for 30 min. Finally 15 μl each of HiRange D2-cAMP and anti-cAMP cryptate were dispensed per well. After >1 hr room temperature incubation, data acquisition was done in the time-resolved FRET (fluorescence-resonance energy transfer) mode on Envision™ or ViewLux™ (Perkin Elmer). The ratio between the acceptor fluorescence signal (A665 nm) and donor fluorescence signal (A620 nm)×104, representing the FRET between the conjugated cAMP and the anti-cAMP antibody, was calculated and plotted on Y-axis. The higher the signal, the lower endogenous cAMP concentration is in the sample.

Chain of hEBI2 (P32249 whole entry): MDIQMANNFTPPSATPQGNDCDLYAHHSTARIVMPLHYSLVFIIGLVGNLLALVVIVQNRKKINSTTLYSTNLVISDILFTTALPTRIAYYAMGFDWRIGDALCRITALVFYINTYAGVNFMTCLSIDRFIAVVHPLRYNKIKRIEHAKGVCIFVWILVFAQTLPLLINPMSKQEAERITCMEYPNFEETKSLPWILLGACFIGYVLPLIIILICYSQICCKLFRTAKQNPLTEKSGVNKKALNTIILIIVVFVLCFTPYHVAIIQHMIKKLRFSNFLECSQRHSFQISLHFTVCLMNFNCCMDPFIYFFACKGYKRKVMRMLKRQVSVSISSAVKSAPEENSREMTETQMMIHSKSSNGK

SMILES	activation of FXRa (FXRa (NR1H4))	activation of PPARg (PPARg (NR1C3))	activation of SXR (SXR (NR112))	EC50 (hEBI2; forskolin 30 μM, read-out: EC50, cAMP assay) [µM]	EC50 (hEBI2) [µM]
CC(CO)CCC[C@@H](C)[C@H]1CC[C@H]2[C@@H]3[C@H](O)C=C4C[C@@H](O)CC[C@]4(C)[C@H]3CC[C@]12C (some centres unmarked) [7a,27DHC, cholest-5-ene-3b,7a,27-triol]	did not activate	did not activate	did not activate	–	–
C[C@H](CCCC(C)(C)O)[C@H]1CC[C@H]2[C@@H]3[C@@H](O)C=C4C[C@@H](O)CC[C@]4(C)[C@H]3CC[C@]12C [7b,25DHC, cholest-5-ene-3b,7b,25-triol]	–	–	–	10.6	–
C[C@H](CCCC(C)(C)O)[C@H]1CC[C@H]2[C@@H]3[C@H](O)C=C4C[C@@H](O)CC[C@]4(C)[C@H]3CC[C@]12C [7a,25DHC, cholest-5-ene-3b,7a,25-triol]	did not activate	did not activate	did not activate	–	0.0103
